Experiment: Gravimetric Vapour Sorption (GVS)
Assay type: physicochemical
Procedure: Sorption isotherms were obtained using a SMS DVS Intrinsic moisture sorption analyser, controlled by SMS Analysis Suite software. The sample temperature was maintained at 25° C. by the instrument controls. The humidity was controlled by mixing streams of dry and wet nitrogen, with a total flow rate of 200 ml.min^−1. The relative humidity was measured by a calibrated Rotronic probe (dynamic range of 1.0-100% RH), located near the sample. The weight change, (mass relaxation) of the sample as a function of % RH was constantly monitored by the microbalance (accuracy ±0.005 mg). Typically 5-20 mg of sample was placed in a tared mesh stainless steel basket under ambient conditions. The sample was loaded and unloaded at 40% RH and 25° C. (typical room conditions). A moisture sorption isotherm was performed as outlined below (2 scans giving 1 complete cycle). The standard isotherm was performed at 25° C. at 10% RH intervals over a 0.5-90% RH range.
The hygroscopicity of the citrate was investigated by carrying out a gravimetric vapour sorption experiment on Batch 4. A sample of approximately 20 mg was held at 25° C. whilst the humidity of its environment was changed through two complete cycles. […] The sample takes longer to reach equilibrium in the early stages of the experiment. This may be due to displacement of residual solvent.

C1=C2COC/C=C/COCc3cc(ccc3OCCN3CCCC3)Nc3nccc(n3)C(=C1)O2 [Batch 4]
Gravimetric Vapour Sorption Max weight change: < 1%
Sorp Mass Change (Cycle 1 adsorption, Target RH 40.0%, 25° C.): −0.1186%
Sorp Mass Change (Cycle 1 adsorption, Target RH 50.0%, 25° C.): −0.0817%
Sorp Mass Change (Cycle 1 adsorption, Target RH 60.0%, 25° C.): 0.0329%
Sorp Mass Change (Cycle 1 adsorption, Target RH 70.0%, 25° C.): 0.1086%
Sorp Mass Change (Cycle 1 adsorption, Target RH 80.0%, 25° C.): 0.2342%
Sorp Mass Change (Cycle 1 adsorption, Target RH 90.0%, 25° C.): 0.5631%
Sorp Mass Change (Cycle 1 desorption, Target RH 0.0%, 25° C.): −0.2816%
Sorp Mass Change (Cycle 1 desorption, Target RH 10.0%, 25° C.): −0.2093%
Sorp Mass Change (Cycle 1 desorption, Target RH 20.0%, 25° C.): −0.1545%
Sorp Mass Change (Cycle 1 desorption, Target RH 30.0%, 25° C.): −0.1076%
Sorp Mass Change (Cycle 1 desorption, Target RH 40.0%, 25° C.): −0.0548%
Sorp Mass Change (Cycle 1 desorption, Target RH 50.0%, 25° C.): 0.0100%
Sorp Mass Change (Cycle 1 desorption, Target RH 60.0%, 25° C.): 0.0743%
Sorp Mass Change (Cycle 1 desorption, Target RH 70.0%, 25° C.): 0.1610%
Sorp Mass Change (Cycle 1 desorption, Target RH 80.0%, 25° C.): 0.2905%
Sorp Mass Change (Cycle 1 desorption, Target RH 90.0%, 25° C.): 0.5631%
Sorp Mass Change (Cycle 1 readsorption, Target RH 0.0%, 25° C.): −0.2816%
Sorp Mass Change (Cycle 1 readsorption, Target RH 10.0%, 25° C.): −0.2138%
Sorp Mass Change (Cycle 1 readsorption, Target RH 20.0%, 25° C.): −0.1620%
Sorp Mass Change (Cycle 1 readsorption, Target RH 30.0%, 25° C.): −0.1146%
Sorp Mass Change (Cycle 1 readsorption, Target RH 40.0%, 25° C.): −0.0643%
Sorp Mass Change (Cycle 2 desorption (first segment, RH 40 to 90), Target RH 40.0%, 25° C.): −0.0643%
Sorp Mass Change (Cycle 2 desorption (first segment, RH 40 to 90), Target RH 50.0%, 25° C.): −0.0100%
Sorp Mass Change (Cycle 2 desorption (first segment, RH 40 to 90), Target RH 60.0%, 25° C.): 0.0513%
Sorp Mass Change (Cycle 2 desorption (first segment, RH 40 to 90), Target RH 70.0%, 25° C.): 0.1281%
Sorp Mass Change (Cycle 2 desorption (first segment, RH 40 to 90), Target RH 80.0%, 25° C.): 0.2567%
Sorp Mass Change (Cycle 2 desorption (first segment, RH 40 to 90), Target RH 90.0%, 25° C.): 0.5397%
Sorp Mass Change (Cycle 2 desorption (second segment, RH 90 to 0), Target RH 0.0%, 25° C.): −0.2836%
Sorp Mass Change (Cycle 2 desorption (second segment, RH 90 to 0), Target RH 10.0%, 25° C.): −0.2093%
Sorp Mass Change (Cycle 2 desorption (second segment, RH 90 to 0), Target RH 20.0%, 25° C.): −0.1565%
Sorp Mass Change (Cycle 2 desorption (second segment, RH 90 to 0), Target RH 30.0%, 25° C.): −0.1032%
Sorp Mass Change (Cycle 2 desorption (second segment, RH 90 to 0), Target RH 40.0%, 25° C.): −0.0528%
Sorp Mass Change (Cycle 2 desorption (second segment, RH 90 to 0), Target RH 50.0%, 25° C.): 0.0045%
Sorp Mass Change (Cycle 2 desorption (second segment, RH 90 to 0), Target RH 60.0%, 25° C.): 0.0738%
Sorp Mass Change (Cycle 2 desorption (second segment, RH 90 to 0), Target RH 70.0%, 25° C.): 0.1535%
Sorp Mass Change (Cycle 2 desorption (second segment, RH 90 to 0), Target RH 80.0%, 25° C.): 0.2771%
Sorp Mass Change (Cycle 2 desorption (second segment, RH 90 to 0), Target RH 90.0%, 25° C.): 0.5397%
Sorp Mass Change (Cycle 2 readsorption, Target RH 0.0%, 25° C.): −0.2863%
Sorp Mass Change (Cycle 2 readsorption, Target RH 10.0%, 25° C.): −0.2168%
Sorp Mass Change (Cycle 2 readsorption, Target RH 20.0%, 25° C.): −0.1630%
Sorp Mass Change (Cycle 2 readsorption, Target RH 30.0%, 25° C.): −0.1116%
Sorp Mass Change (Cycle 2 readsorption, Target RH 40.0%, 25° C.): −0.0653%
water taken up (isotherm plot) (between 40% RH and 90% RH, 25° C.): < 0.6%
phase change after GVS experiment (XRPD) (sample retrieved at end of GVS): no overall phase change

From patent publication US9062074B2, “(9E)-15-(2-pyrrolidin-1-yl-ethoxy)-7,12,25-trioxa-19,21,24-triaza-tetracyclo[18.3.1.1(2.5).1(14,18)]hexacosa-1(24),2,4,9,14,16,18(26),20,22-nonaene citrate salt” (CTI BioPharma Corp., priority 2009, dated 2015)
